“Also recorded” adds a separate entry of the source.

Assay [1] concerns TOR2-mTOR L2185C mutant. The experiment in a line: Yeast spotting assay for drug resistance, TOR2-mTOR L2185C. Format: cell-based, S. cerevisiae. The conditions noted are these: 37° C., amphotericin B present (except OSI-027). The text has this:
FIGS. 4A-C. […] (FIG. 4A) Scheme of a yeast-based screen for drug-resistant mutations in mTOR kinase domain. mTOR kinase domain is amplified by error-prone PCR to generate randomized mutations, which is then recombined in frame into the TOR2-mTOR plasmid by gap-repair in tort-dg cells, and is selected on SC-leucine minus plates. Replica plating is then made onto SC-leucine plates containing DMSO or mTOR kinase inhibitor for selection of drug resistant clones. (FIG. 4B) tor2-dg cells expressing WT or mutant TOR2-mTOR were serially diluted by 10-fold and assayed for sensitivity to different mTOR kinase inhibitors in the presence of amphotericin B. Vector and TOR2 were used as controls. Drug resistant assay was performed at 37° C. in the presence of amphotericin B (except OSI-027). (FIG. 4C) Systematic mutational analysis of L2185 on drug resistance. tort-dg cells expressing WT or mutant TOR2-mTOR carrying all possible mutations at L2185 were serially diluted by 10-fold and tested for sensitivity to different mTOR kinase inhibitors at 37° C.
To enhance yeast cell permeability, log phase W303 tort-dg cells were spread evenly on SD-Leu agarose plates. After drying, small sterile filter discs were placed on the surface and 5 μl of indicated mTOR inhibitors or DMSO were applied to each disc with or without adding 5 μl of amphotericin B (10 μM), miconazole (50 μM) or caspofungin (50 μM). Plates were incubated at 37° C. for 3 day. Drug resistance profiles of TOR2-mTOR mutant cells were determined by the spotting assay. For this assay, 10-fold serial dilutions of cells were spotted on SD-leu plates in the presence of indicated mTOR inhibitors with or without amphotericin B (200 nM) and incubated at 37° C. for 3 day.

For assay [2], the system named is SW480 colorectal cancer cells carrying L2185A mutant mTOR alleles. The experiment in a line: SRB growth assay of SW480 cells carrying L2185A mutant mTOR. Format: cell-based, human. The conditions noted are these: various concentrations, 2 day. Here is the method:
(FIG. 5A) SW480 cells carrying homozygous WT mTOR or L2185A mutant alleles were treated with various concentrations of AZD8055, INK-128, OSI-027 and PP242 for 2 day. Growth of SW480 cells was measured by SRB assay. Data represent means±SD in three independent experiments. (FIG. 5B) SW480 cells carrying homozygous WT and L2185A mutant mTOR allele were treated with a single dose of AZD8055 (100 nM), INK-128 (100 nM), OSI-027 (6,000 nM), and PP242 (2,000 nM) for different times. Cell growth was measured by SRB assay. The drug carrier DMSO was used as a control. Data represent means±SD in three independent experiments. (FIG. 5C) SW480 cells carrying homozygous WT and L2185A mutant mTOR were treated with various concentrations of INK-128, OSI-027, AZD8055 and PP242 for 1 hr. The effect on the level of P-S6K, S6K, P-4E-BP1, 4EB-P1, P-AKT and AKT was analyzed by immunoblot. […] The growth of SW480 cells was measured by SRB assay. Data represent means±SD in three independent experiments.
Cancer cell lines were maintained in DMEM or RPMI 1640, supplemented with 10% fetal bovine serum (Invitrogen) and 1% penicillin/streptomycin (Invitrogen). CRISPR/cas9 technology was used to engineer mutant mTOR allele in SW480 colorectal and H460 lung cancer cells. Briefly, The target sequence for mTOR, […] (SEQ ID NO: 3 was designed through the online tool at crispr.mit.edu, and cloned into pSPCas9(BB)-2A-GFP vector (PX458 in Addgene). Genomic mTOR mutation was engineered using a protocol as described (Ran, et al. (2013). Nature protocols 8, 2281-2308) and was confirmed by targeted sequencing.
Antibodies against tubulin, S6K, phospho-S6K (Thr389), 4E-BP1, phospho-4E-BP1 (Thr37/46), Akt, phospho-Akt (Thr308), and phospho-Akt (Ser473) were purchased from Cell Signaling Technology. […] For drug sensitivity test, cancer cells were seeded in 96-well plates at a density of 2,000 cells per well. 24 hours later, different concentrations of mTOR inhibitors were added in quadruplicate. Cell growth was measured by the sulforhodamine B (SRB) assay as previously described (Vichai, V., and Kirtikara, K. (2006). Nature protocols 1, 1112-1116).

Consider `CC(C)n1nc(-c2ccc3oc(N)nc3c2)c2c(N)ncnc21` [INK128], for which the “drug resistance/sensitivity of TOR2-mTOR L2185C mutant yeast” value in assay [1] is listed as “confer resistance; also recorded: conferring resistance”. Besides, in assay [2], the “drug resistance/sensitivity of cell growth, SW480 L2185A vs WT” value was “confers resistance”.

Values taken from patent publication US10551384B2, “MTOR kinase mutations and methods of use thereof” (RUTGERS, THE STATE UNIVERSITY OF NEW JERSEY, priority 2016, dated 2020).
